Experimental data as given in ChEMBL document CHEMBL3600281, “Synthesis and anticancer properties of new (dihydro)pyranonaphthoquinones and their epoxy analogs” (Bioorg Med Chem Lett, 2015).
Calls of active or inactive are those of the source. The calls are words filed in the database; no cut-off is given here.

Tests used:
[1] = Cytotoxicity against human Lu cells; assay type: functional, cell-based
Bacillus subtilis = assay: Antibacterial activity against Bacillus subtilis; assay type: functional, organism-based
Staphylococcus aureus = assay: Antibacterial activity against Staphylococcus aureus; assay type: functional, organism-based
KB = assay: Cytotoxicity against human KB cells; assay type: functional, cell-based
Candida albicans = assay: Antifungal activity against Candida albicans; assay type: functional, organism-based
MCF7 = assay: Cytotoxicity against human MCF7 cells; assay type: functional, cell-based
HepG2 = assay: Cytotoxicity against human HepG2 cells; assay type: functional, cell-based
Escherichia coli = assay: Antibacterial activity against Escherichia coli; assay type: functional, organism-based
Pseudomonas aeruginosa = assay: Antibacterial activity against Pseudomonas aeruginosa; assay type: functional, organism-based

| Compound | IC50 [1] [µM] | Activity (Bacillus subtilis) | Activity (Staphylococcus aureus) | IC50 (KB) [µM] | Activity (Candida albicans) | IC50 (MCF7) [µM] | IC50 (HepG2) [µM] | Activity (Escherichia coli) | Activity (Pseudomonas aeruginosa) |
| --- | --- | --- | --- | --- | --- | --- | --- | --- | --- |
| CC1=C[C@@]23O[C@]2(CO1)C(=O)c1ccccc1C3=O | > 41.3 | inactive | inactive | > 41.3 | inactive | > 41.3 | > 41.3 | inactive | inactive |
| Cc1c2ccncc2c(C)c2c1[nH]c1ccccc12 [ELLIPTECINE] | 2.2 |  |  |  |  | 1.8 | 1.3 |  |  |
| CC1=CC2=C(CO1)C(=O)c1ccccc1C2=O | 13.1 | inactive | Active | 5.6 | inactive | 29.5 | 6.7 | inactive | inactive |
| CC(C)C1C[C@@]23O[C@]2(CO1)C(=O)c1ccccc1C3=O (some centres undefined) | > 32.6 | inactive | inactive | > 32.6 | inactive | > 32.6 | > 32.6 | inactive | inactive |
| O=C1c2ccccc2C(=O)[C@]23COC(c4ccccc4)=C[C@]12O3 | > 32.9 | inactive | inactive | > 32.9 | inactive | > 32.9 | > 32.9 | inactive | inactive |
| CC(C)C1=CC2=C(CO1)C(=O)c1ccccc1C2=O | 14.9 | inactive | Active | 4.1 | inactive | 6.7 | 10.7 | inactive | inactive |
| CC1C[C@@]23O[C@]2(CO1)C(=O)c1ccccc1C3=O (some centres undefined) | > 41 | inactive | inactive | > 41 | inactive | > 41 | > 41 | inactive | inactive |
| O=C1C2=C(CC(c3ccccc3)OC2)C(=O)c2ccccc21 (centres undefined) | > 34.4 | inactive | inactive | 16.1 | inactive | 27.2 | 18.7 | inactive | inactive |
| CC1CC2=C(CO1)C(=O)c1ccccc1C2=O (centres undefined) | 23.2 | inactive | inactive | 25.3 | inactive | 22.1 | 22.5 | inactive | inactive |
| O=C1c2ccccc2C(=O)[C@]23COC(c4ccc(F)cc4)C[C@]12O3 (some centres undefined) | > 30.8 | inactive | inactive | > 30.8 | inactive | > 30.8 | > 30.8 | inactive | inactive |
| O=C1C2=C(COC(c3ccc(F)cc3)=C2)C(=O)c2ccccc21 | 11.5 | inactive | inactive | 1.5 | inactive | 12.9 | 3.6 | inactive | inactive |
| O=C1c2ccccc2C(=O)[C@]23COC(c4ccc(F)cc4)=C[C@]12O3 | > 31 | inactive | inactive | > 31 | inactive | > 31 | > 31 | inactive | inactive |
| O=C1C2=C(COC(c3ccccc3)=C2)C(=O)c2ccccc21 | > 34.7 | inactive | inactive | 7.5 | inactive | > 34.7 | 12.2 | inactive | inactive |
| CC(C)C1CC2=C(CO1)C(=O)c1ccccc1C2=O (centres undefined) | > 39 | inactive | inactive | 17.5 | inactive | 26.2 | 19.8 | inactive | inactive |
| O=C1C2=C(CC(c3ccc(F)cc3)OC2)C(=O)c2ccccc21 (centres undefined) | 22.1 | inactive | inactive | 20.6 | inactive | > 32.4 | 23.4 | inactive | inactive |
